Experimental data taken from patent US9688709B2, “Phosphaplatins and their use for treatment of cancers” (OHIO UNIVERSITY, priority 2010, dated 2017).
Where “and” joins values, the source holds several entries; their conditions need not be identical. Equal values may be shown once.

Key:
[1] = tested on: A2780/C30, epithelial human ovarian cancer resistant to 30 μM cisplatin and 100 μM carboplatin; assay: Clonogenic assay, A2780/C30 cells; type: cell-based; settings: A2780/C30, 1 hour treatment
Experimental: (§1) To determine the relative activities of the phosphaplatins of formulas (I)-(VI), each stereoisomer was tested through in vitro clonogenic assays using human ovarian cancer cells, human colon cancer cells, and human head-and-neck cancer cells. […] Cells were cultured on monolayer using RPMI 1640 supplemented with 10% fetal bovine serum, 2 mM glutamine, 0.25 units/mL insulin and penicillin/streptomycin (100 units/mL) in a 37° C. incubator continuously gassed with 5% CO2. Cells were subcultured using 0.0625% trypsin in HBSS to maintain cells in exponential cell growth.
(§2) Half-maximal inhibitory concentration (IC50) values were determined using a clonogenic assay or a CyQUANT® cell proliferation assay. In the clonogenic assay, for example, 500-700 A2780 cells from a single cell suspension were plated onto 60 mm petri plates 24 hours before treatment with the platinum compounds to permit cell attachment. On the day of treatment with the platinum compounds described in the above Synthesis Examples, the medium was decanted and was replaced with the appropriate concentration of phosphaplatin compounds (from 50 nM to 75 μM) at three different time points, […] Triplicate plates were set up for each platinum compound concentration. After the 24-hour treatment, the medium containing the platinum compounds was decanted and was replaced with fresh medium. These plates were returned to the 37° C. incubator for 7 days for colony formation.
(§3) In TABLES 1-5, except where actual error values are given, each reported value is assumed to have an error not greater than ±15% of the reported value; and unless otherwise specified, the data were obtained from clonogenic assays.
(§4) In further tests, cells were treated with the platinum compounds continuously for 7 days. Colonies were fixed and stained using 2% crystal violet in 4% formaldehyde. Colonies containing more than 50 cells were scored. The number of scored colonies from the triplicate plates was averaged, and this number was divided by the number of cells plated to obtain a value for the fraction of cells forming colonies. These values for fraction of cells forming colonies then were corrected for plating efficiency by dividing the fraction by the number of cells forming colonies in plates that were not treated with platinum compounds. […] Similar data for OVCAR-10 are shown in FIG. 3, comparing (1R,2R)-pyrodach-2 (RD2), (1R,2R)-pyrodach-4 (RD4), trans-(±)-pyrodach-2 (T-D2), and trans-(±)-pyrodach-4 (T-D4).

[2] = tested on: BAX; assay: Western blot protein expression, BAX; type: in vivo; settings: treated mice, exposure 1 hour to 12 hours
Experimental: (§5) Following 12% SDS-PAGE electrophoresis, proteins were transferred to a PVDF membrane using 100 V for 1.5 hours at 4° C. Membranes were washed with 0.05% TWEEN-20 and Tris-buffered saline (TBST) solution and blocked with 5% non-fat dry milk and 1% BSA. The membrane was incubated with a 1:25,000 dilution of primary antibody of the protein of interest over night at 4° C. Membranes were washed with 0.05% TBST followed by incubating in the corresponding HRP-conjugated antibody (1:40,000 dilution). The proteins were visualized using ECL-Advance chemiluminescent system (Amersham-GE Healthcare Biosciences, Pittsburgh, Pa.).
(§6) The phosphaplatins activate a number of proapototic and tumor suppression genes such as FAS, PTEN, PUMA, BAX and others. Experiments through Western Blots confirm high levels of protein expressions transcribed by these genes. […] Likewise, BCL2 was down regulated as much as 70% by RR-pyrodach-2 and RR-pyrodach-4. Additionally, FAS, FADD, and platinum compound were co-localized in the lipid rafts. These activations are also associated with the increased expression of Sphingomyelinase (Smase), as verified by the increased protein expression of SMase.

[3] = tested on: FAS; assay: Western blot protein expression, FAS; type: in vivo; settings: treated mice, exposure 1 hour to 12 hours
Experimental: as §5, §6

[4] = tested on: OVCAR-10, human ovarian cancer resistant to cisplatin treatment; assay: Clonogenic assay, OVCAR-10 cells; type: cell-based; settings: OVCAR-10, 24 hours treatment
Experimental: as §1
Half-maximal inhibitory concentration (IC50) values were determined using a clonogenic assay or a CyQUANT® cell proliferation assay. In the clonogenic assay, for example, 500-700 A2780 cells from a single cell suspension were plated onto 60 mm petri plates 24 hours before treatment with the platinum compounds to permit cell attachment. On the day of treatment with the platinum compounds described in the above Synthesis Examples, the medium was decanted and was replaced with the appropriate concentration of phosphaplatin compounds (from 50 nM to 75 μM) at three different time points, and the treated cells were placed back into the 37° C. incubator for 24 hours. Triplicate plates were set up for each platinum compound concentration. After the 24-hour treatment, the medium containing the platinum compounds was decanted and was replaced with fresh medium. These plates were returned to the 37° C. incubator for 7 days for colony formation.
as §3, §4

[5] = tested on: A549, human lung adenocarcinoma cancer cells; assay: CyQUANT cell proliferation assay, A549; type: cell-based; settings: A549, 72-hour treatment
Text: (§7) In these experiments, desired number of cells were exposed to phosphaplatins of different concentrations for 72 hr. before measuring the DNA content. Because the DNA content is proportional to the number of surviving cells, the assay provides a quantitative measure of proliferating cells. The technique is described in detail in Jones et al., “Sensitive determination of cell number using the CyQUANT cell proliferation assay,” J. Immunol. Methods, vol. 254, pp. 85-98 (2001).
as §3

[6] = tested on: VEGFR; assay: Western blot protein expression, VEGFR; type: in vivo; settings: treated mice, exposure 1 hour to 12 hours
Experimental: as §5, §6

[7] = tested on: A2780, epithelial human ovarian cancer; assay: Clonogenic assay, A2780 cells; type: cell-based
Experimental: as §1
as §2, with “After the 24-hour treatment, the medium containing the platinum compounds was decanted and was replaced with fresh medium.” left out
as §3, §4

[8] = tested on: SKMEL-2, human skin melanoma cancer cells; assay: CyQUANT cell proliferation assay, SKMEL-2; type: cell-based; settings: SKMEL-2, 72-hour treatment
Text: as §7, §3

[9] = tested on: OVCAR-10, human ovarian cancer resistant to cisplatin treatment; assay: CyQUANT cell proliferation assay, OVCAR-10; type: cell-based; settings: OVCAR-10, 72-hour treatment
Text: as §7, §3

[10] = tested on: PUMA; assay: Western blot protein expression, PUMA; type: in vivo; settings: treated mice, exposure 1 hour to 12 hours
Experimental: as §5, §6

[11] = tested on: OVCAR-8, human ovarian cancer cells with dysfunctional p53; assay: CyQUANT cell proliferation assay, OVCAR-8; type: cell-based; settings: OVCAR-8, 72-hour treatment
Text: as §7, §3

[12] = tested on: PC-3, human metastatic prostate cancer cells; assay: CyQUANT cell proliferation assay, PC-3; type: cell-based; settings: PC-3, 72-hour treatment
Text: as §7, §3

[13] = tested on: U251, human glioblastoma cancer cells; assay: CyQUANT cell proliferation assay, U251; type: cell-based; settings: U251, 72-hour treatment
Text: as §7, §3

[14] = tested on: Ovarian tumor; assay: Ovarian tumor inflicted SCID mice, tumor growth and log cell kill; type: in vivo
Experimental: Ovarian tumor inflicted SCID mice were treated with trans-(±)-pyrodach-2 and trans-(±)-pyrodach-4 at various doses up to 40 mg/kg, and tumor growth was monitored up to six weeks or until the tumor size became so large that these animals were sacrificed. The tumor growth or regression by the phosphaplatin-treated mice was then compared with cisplatin-treated mice (7 mg/kg) and carboplatin-treated mice (60 mg/kg). Three doses of platinum compounds were administered on alternate days when the tumor grew to a size of at least 100 mm^3 size. Gross and net log cell kill values were then calculated using the formulas:
[formula] [formula] where T and C are median times in days to grow tumor to a specified size, and Td is the median time in days to double the size of the tumor in control animals.

[15] = tested on: head and neck cancer cell line UMSCC10b; assay: 144 hour exposure IC50, UMSCC10b; type: cell-based, human
Experimental: (§8) Additionally these isomeric compounds were also tested by exposing them for 144 hours in the following cell lines: UMSCC10b, Panc-1, UMSCC15s, A2780/C30 and HCC1806.

[16] = tested on: UMSCC10b/15s, cisplatin-resistant human head-and-neck cancer cell line; assay: Clonogenic assay, UMSCC10b/15s cells; type: cell-based; settings: 7-day treatment
Experimental: as §1
(§9) Half-maximal inhibitory concentration (IC50) values were determined using a clonogenic assay or a CyQUANT® cell proliferation assay. In the clonogenic assay, for example, 500-700 A2780 cells from a single cell suspension were plated onto 60 mm petri plates 24 hours before treatment with the platinum compounds to permit cell attachment. […]
(§10) In further tests, cells were treated with the platinum compounds continuously for 7 days. […] Colonies containing more than 50 cells were scored. The number of scored colonies from the triplicate plates was averaged, and this number was divided by the number of cells plated to obtain a value for the fraction of cells forming colonies. […]

[17] = tested on: OVCAR-5, advanced human ovarian cancer cells; assay: Clonogenic assay, OVCAR-5 cells; type: cell-based; settings: OVCAR-5, 24 hours treatment
Experimental: as §1, §9, §10

[18] = tested on: breast cancer cell line HCC1806; assay: 144 hour exposure IC50, HCC1806; type: cell-based; settings: HCC1806, 144 hours exposure
Experimental: as §8

[19] = tested on: pancreatic cell line Panc-1; assay: 144 hour exposure IC50, Panc-1; type: cell-based; settings: Panc-1, 144 hours exposure
Experimental: as §8

[20] = tested on: human ovarian cancer OVCAR-10 xenograft; assay: In vivo efficacy, OVCAR-10 mouse xenograft; set-up: species or system mice; settings: 60 mg/kg qodx3, time to tumor size 1000 mm^3, compared with control
Experimental: Stable human clonal ovarian cancer cell lines OVCAR-10 and head and neck cancer UMSCC10b were grown separately in cell culture until 80-90% confluency was reached. Trypsin (GIBCO/BRL, Grand Island, N.Y.) was used to detach adherent cells. Trypsinized cells were thoroughly washed with PBS (Phosphate Buffered Saline) to remove trypsin. Efficacy of phosphaplatin compounds were evaluated by subcutaneously implanting human OVCAR-10 and UMSCC-10b xenograft in SCID Hairless OutBred, SHO-Prkdc^scidHr^hr, (Charles River Labs, Wilmington, Mass.) mice, NIH (NIH III: NIHBNX-F; NIHS-Lystbg Foxnlnu Btkxid, 4-week old female, Taconic (Rensselaer, N.Y.) mice.
Female SCID/NIH mice 4-5 weeks old were acclimated for one week before initiation of efficacy trials. Cancer cells were re-suspended in PBS and all mice except for negative control mice were injected subcutaneously with from 1×10^6 cells/0.10 mL to 5×10^6 cells/0.10 mL in PBS. The tumor size was evaluated as a function of time. The mice were examined daily for tumor growth. Tumors were measured using digital calipers. The tumor volume was calculated by the formula (W^2×L)/2, where W is the tumor measurement at the widest point, and L is the tumor dimension at the longest point, where the volume of the tumor in mm^3 is equivalent to the weight in mg.
After approximately 2 weeks of the subcutaneous injection of cancer cells, the tumors that had reached a distinguishable tumor sizes (approximately 100 mm^3 to 200 mm^3), phosphaplatin compounds of desired doses were administered intra-peritoneally. These administrations were done one time on day 1, once on day 3, and once on day 5.
Each group of xenograft mice was treated with phosphaplatin compounds, and a matched set was treated with vehicle/placebo (PBS solution) and mock injection (as a control for stress response). […] The xenograft SCID mice/NIH were monitored every day for any adverse events in their health by measuring weight loss/gain and food consumption. Measurements were stopped and the study was ended when the tumor size exceeded 3000 mm^3. […]

[21] = Maximum tolerated dose toxicity in ICR (CD-1) mice; type: in vivo; settings: dose of 60 mg/kg
Experimental: Escalating doses were administered from 10 mg/kg to 100 mg/kg in 4-5 week-old female ICR (CD-1) mice, Taconic (Rensselaer, N.Y.). The mice had body weights between 15 g and 24 g. The mice were injected with one of the phosphaplatins every other day in a three-dose regimen. Total body-weight loss of 20% or more, unthrifty appearance, failure to gain weight, other observable health issues, departures from normal behaviors, or death, were considered an adverse event.

[22] = 40 mg/kg, three doses on alternate days

| Compound | IC50 [1] | IC50 [4] | IC50 [5] | IC50 ([7]; A2780, 1 hour treatment) | IC50 [8] | IC50 [9] | IC50 [11] | IC50 [12] | IC50 [13] | IC50 ([7]; A2780, 24 hours treatment) | also measured |
| --- | --- | --- | --- | --- | --- | --- | --- | --- | --- | --- | --- |
| trans-(±)-1,2-cyclohexanediamine-trans-dihydroxo(pyrophosphato) platinum(IV) [trans-(±)-pyrodach-4] | 155 ± 20 µM | 14.4 µM | 12.2 µM | 180 µM and 170 µM | 14.6 µM | 23.2 µM | 12.3 µM | 20 µM | 14.6 µM | – | upregulation of BAX [2]: up to 4 fold; upregulation of FAS [3]: up to 25 fold; down regulation of VEGFR [6]: up to 50%; upregulation of PUMA [10]: up to 5 fold; gross log cell kill [14, 22]: greater than 3; log net cell kill [14, 22]: greater than 2 |
| NC1CCCCC1N.O=P([O-])(O)OP(=O)([O-])O.[Pt+2] (racemic) [trans-(±)-pyrodach-2, trans-(±)-1,2-cyclohexanediamine(pyrophosphato) platinum(II)] | 48 ± 5 µM | 4.6 µM | 11.1 µM | 22 ± 4 µM | 8.3 µM | 11.8 µM | 9.4 µM | 24.5 µM | 10.1 µM | 2.4 ± 0.2 µM | IC50 [15]: 8.9 µM; IC50 [16]: 5 µM; IC50 [17]: 12.2 µM; IC50 [18]: > 30 µM; IC50 [19]: 18.5 µM |
| N.N.O=C([O-])C1(C(=O)[O-])CCC1.[Pt+2] [carboplatin] | > 200 µM | 26.7 µM | – | 90 µM | – | – | – | – | – | > 60 µM | percent increased life-span (% ILS) [20]: about 125%; population died ([14]; 60 mg/kg dose): more than 50%; log cell kill values ([14]; 60 mg/kg, three doses on alternate days): less than 2; death [21]: 33% |
